The values below come from ChEMBL document CHEMBL1201862, “PubChem BioAssay data set” (2004).

“And” between values parts separate entries of the source, which are not always exact repeats. Identical values can stand only once.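 A five-concentration, 48-hour dose response in 96-well plates underlies each endpoint, interpolated linearly between surrounding concentrations. The concentration for 50% growth inhibition is given as GI50.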 The source made the active and inactive calls. Cut-off read from the data, not from the text of the source: active = GI50 up to about 1.1 µM and inactive = higher.

Among the test systems are NCI-H460; SK-MEL-2; HCT-116; MDA-MB-435; HCT-15; SK-MEL-5; OVCAR-4; IGROV-1; MCF7; MDA-N; SNB-19; SR; MOLT-4; A549; EKVX; NCI-H522; HOP-92.
What all share (assay): inhibition of tumour cell growth, NCI panel, 48 h

For the compound `CC1=CC(O)(c2ccccc2)C(N2CCOCC2)N1O` (stereo unspecified), the GI50 was > 100 µM (inactive) with NCI-H460; 81.1 µM (inactive) in the assay with SK-MEL-2; > 100 µM (inactive) in the assay on HCT-116; > 100 µM (inactive) in the assay on MDA-MB-435; more than 100 µM in the assay on HCT-15; > 100 µM (inactive) with SK-MEL-5. In addition, the GI50 with OVCAR-4, in the assay on IGROV-1, in the assay with MCF7, with MDA-N, in the assay with SNB-19 and in the assay on SR was > 100 µM (inactive) each time. Besides, the GI50 in the assay on MOLT-4, in the assay on A549, with EKVX and in the assay on NCI-H522 was > 100 µM (inactive) throughout.

For the compound `CCCC1C2=C(C(=O)OC2=O)C2C(CC)CC3=C(C(=O)OC3=O)C12` (stereo unspecified), the GI50 in the assay on NCI-H460 was > 100 µM (inactive); with SK-MEL-2, > 100 µM (inactive); in the assay on HCT-116, > 100 µM (inactive); in the assay with MDA-MB-435, > 100 µM (inactive); with HCT-15 it was more than 100 µM; in the assay on SK-MEL-5, > 100 µM (inactive). Besides, the GI50 in the assay on HOP-92, in the assay on IGROV-1, in the assay on MCF7, in the assay with MDA-N, in the assay on SNB-19 and in the assay with SR was > 100 µM (inactive) throughout. Further, the GI50 in the assay with MOLT-4, in the assay on A549 and in the assay with EKVX was > 100 µM (inactive) throughout.

For `CC1(C)C(=S)C(C)(C)C1=S`, the GI50 in the assay on NCI-H460 is > 100 µM (inactive); in the assay with SK-MEL-2 it was > 100 µM (inactive); in the assay on HCT-116 it was > 100 µM (inactive); in the assay with MDA-MB-435 it was > 100 µM (inactive); in the assay on HCT-15 it was more than 100 µM; in the assay with SK-MEL-5, > 100 µM (inactive). The GI50 in the assay with OVCAR-4, in the assay with IGROV-1, in the assay on MCF7, in the assay with MDA-N, in the assay with SNB-19 and in the assay on SR was > 100 µM (inactive) in each case. Besides, the GI50 with MOLT-4, in the assay with A549 and with EKVX was > 100 µM (inactive) throughout.

In the case of `CC[C@@H]1CC[C@@H]2[C@H](CC[C@]3(C)[C@@H](O)CC[C@@H]23)[C@H]1CO`, the GI50 in the assay with NCI-H460 is > 100 µM (inactive); in the assay on SK-MEL-2 it was > 100 µM (inactive); with HCT-116 it was 95.7 µM (inactive); in the assay on MDA-MB-435 it was 66.1 µM (inactive); with HCT-15, more than 100 µM; with SK-MEL-5, 31.3 µM (inactive). For the same compound, the GI50 with OVCAR-4 is 71 µM (inactive); in the assay with HOP-92, > 100 µM (inactive); in the assay with IGROV-1, > 100 µM (inactive); with MCF7, > 100 µM (inactive); with MDA-N, > 100 µM (inactive); in the assay with SNB-19, > 100 µM (inactive). For the same compound, the GI50 with MOLT-4 was 50 µM (inactive); in the assay with A549, > 100 µM (inactive); in the assay on EKVX, > 100 µM (inactive); in the assay with NCI-H522, 44.6 µM (inactive).

Turning to `O=C1/C(=C/c2cccc([N+](=O)[O-])c2)N=C(c2ccccc2)N1c1nc2c(Cl)cc(Cl)cc2s1`, the GI50 in the assay on NCI-H460 is 27.5 µM (inactive); in the assay on SK-MEL-2, 21.4 µM (inactive); in the assay on HCT-116, 19.5 µM (inactive); with MDA-MB-435, 20.8 µM (inactive); with HCT-15, 29.3 µM; with SK-MEL-5, 16.9 µM (inactive). The GI50 with OVCAR-4 was 24 µM (inactive); with HOP-92 it was 24.6 µM (inactive); in the assay with IGROV-1, 23.2 µM (inactive); in the assay with MCF7, 23.9 µM (inactive); with MDA-N, 18.4 µM (inactive); with SNB-19, 23.1 µM (inactive). The GI50 was 16.8 µM (inactive) in the assay with SR, 11.5 µM (inactive) with MOLT-4, 21.1 µM (inactive) in the assay on A549 and 15.5 µM (inactive) in the assay with EKVX.

As for `CN(C)CCNC1=Nc2ccccc2C(=O)N2CSCC12` (stereo unspecified), the GI50 was > 100 µM (inactive) in the assay on NCI-H460; > 100 µM (inactive) in the assay with SK-MEL-2; > 100 µM (inactive) in the assay on HCT-116; > 100 µM (inactive) with MDA-MB-435; more than 100 µM in the assay on HCT-15; > 100 µM (inactive) in the assay with SK-MEL-5. Further, the GI50 with OVCAR-4, with IGROV-1, with MCF7, in the assay with MDA-N, in the assay on SNB-19 and in the assay on SR was > 100 µM (inactive) in each case. Moreover, the GI50 with MOLT-4, in the assay with A549, in the assay on EKVX and in the assay on NCI-H522 was > 100 µM (inactive) each time.

On to `CCNC(=O)c1cc(Cl)ccc1NC(=O)C12CC3CC(CC(C3)C1)C2`, for which the GI50 in the assay on NCI-H460 was 34.3 µM (inactive); in the assay on SK-MEL-2, 23.1 µM (inactive); in the assay on HCT-116 it was 31.3 µM (inactive); in the assay with MDA-MB-435, 29 µM (inactive); in the assay with HCT-15, 32.7 µM; in the assay with SK-MEL-5, 30.1 µM (inactive). Further, the GI50 in the assay on OVCAR-4 is 36.1 µM (inactive); in the assay on HOP-92 it was 30.4 µM (inactive); in the assay on IGROV-1, 33.1 µM (inactive); with MCF7, 39.1 µM (inactive); with MDA-N, 22.5 µM (inactive); with SNB-19 it was 43.6 µM (inactive). For the same compound, the GI50 is 34.8 µM (inactive) in the assay with MOLT-4, 37.2 µM (inactive) in the assay with A549, 21.4 µM (inactive) in the assay on EKVX and 75.5 µM (inactive) in the assay with NCI-H522.

As to `N#Cc1c(NCCc2ccc(F)cc2)c2ccccc2n2c1nc1ccccc12`, the GI50 in the assay with NCI-H460 was 16.5 µM (inactive); with SK-MEL-2, 36.9 µM (inactive); with HCT-116, 19 µM (inactive); in the assay on MDA-MB-435, 73.5 µM (inactive); in the assay with HCT-15, 28.4 µM; in the assay with OVCAR-4 it was 2.45 µM (inactive). Besides, the GI50 is 3.55 µM (inactive) in the assay with HOP-92; 13.4 µM (inactive) with IGROV-1; 6.34 µM (inactive) in the assay with MCF7; 21.3 µM (inactive) with MDA-N; 14 µM (inactive) in the assay with SNB-19; > 100 µM (inactive) in the assay on SR. Also, the figures for the GI50 in the assay with MOLT-4, in the assay on A549 and in the assay with EKVX were > 100 µM (inactive), 33.7 µM (inactive) and 10.2 µM (inactive), respectively.

Take `NC1CC(=O)c2c1sc(Cl)c2Cl` (stereo unspecified): the GI50 with NCI-H460 is > 100 µM (inactive); in the assay on SK-MEL-2, > 100 µM (inactive); in the assay with HCT-116 it was > 100 µM (inactive); in the assay on MDA-MB-435, > 100 µM (inactive); in the assay with HCT-15 it was more than 100 µM; in the assay on SK-MEL-5 it was > 100 µM (inactive). Besides, the GI50 in the assay on IGROV-1, in the assay on MCF7, in the assay with MDA-N, in the assay with SNB-19, in the assay on SR and with MOLT-4 was > 100 µM (inactive) each time. For the same compound, the GI50 with A549 and in the assay on EKVX was > 100 µM (inactive) each time.

For `COC(=O)[C@@](C)(COC(=O)C(C)(C)C)NC(=O)OC(C)(C)C`, the GI50 with NCI-H460 is > 100 µM (inactive); with SK-MEL-2 it was > 100 µM (inactive); in the assay on HCT-116, > 100 µM (inactive); in the assay on MDA-MB-435 it was > 100 µM (inactive); in the assay with HCT-15, more than 100 µM; in the assay with SK-MEL-5, > 100 µM (inactive). The GI50 in the assay on OVCAR-4, in the assay with IGROV-1, with MCF7, in the assay on MDA-N, in the assay with SNB-19 and in the assay on SR was > 100 µM (inactive) each time. The GI50 with MOLT-4, in the assay with A549, in the assay with EKVX and in the assay with NCI-H522 was > 100 µM (inactive) throughout.

In the case of `CC1=CC(=O)CC2(C)CCC(C(C)CC(=O)CC(C)C)CC12OO` (stereo unspecified), the GI50 with SK-MEL-2 is 16.9 µM (inactive) and 20.2 µM (inactive); with HCT-116 it was 16.2 µM (inactive) and 16.1 µM (inactive); in the assay with MDA-MB-435, 17.5 µM (inactive) and 18.3 µM (inactive); in the assay on SK-MEL-5, 15.7 µM (inactive) and 21 µM (inactive); in the assay with OVCAR-4 it was 27.7 µM (inactive) and 16 µM (inactive); with HOP-92, 15.9 µM (inactive) and 18 µM (inactive). In addition, the GI50 in the assay with IGROV-1 is 15 µM (inactive) and 20 µM (inactive); with MCF7, 16.9 µM (inactive) and 17.2 µM (inactive); in the assay on MDA-N, 18.8 µM (inactive) and 18.1 µM (inactive); with SNB-19 it was > 100 µM (inactive) and 95.5 µM (inactive); in the assay with SR, 18.5 µM (inactive) and 20.6 µM (inactive); in the assay with MOLT-4 it was 14.8 µM (inactive) and 15.8 µM (inactive). For the same compound, the GI50 in the assay with A549 was 16.7 µM (inactive) and 15.4 µM (inactive); in the assay on EKVX, 17.9 µM (inactive) and 19.9 µM (inactive).

`Nc1nc(Cl)cc(NCC2(CO)CCC(Cc3ccccc3)C2)n1` (stereo unspecified): the GI50 in the assay on NCI-H460 is 18.6 µM (inactive); in the assay with SK-MEL-2, 23.6 µM (inactive); in the assay with HCT-116, 15.5 µM (inactive); with MDA-MB-435 it was 7.73 µM (inactive); in the assay on HCT-15, 27.4 µM; in the assay with SK-MEL-5, 0.671 µM (active). For the same compound, the GI50 with OVCAR-4 was 13.6 µM (inactive); in the assay with HOP-92, 20.6 µM (inactive); in the assay on IGROV-1, 26.5 µM (inactive); in the assay with MCF7, 11.2 µM (inactive); in the assay with MDA-N, 23.1 µM (inactive); in the assay with SNB-19 it was 33.5 µM (inactive). For the same compound, the GI50 with MOLT-4 was 3.74 µM (inactive); with A549 it was 16.3 µM (inactive); with EKVX, 8.71 µM (inactive); in the assay on NCI-H522 it was 10.1 µM (inactive).

On to `CN(C)c1ccc(/C=C/C(=O)CC(=O)/C=C/c2ccc(N(C)C)cc2)cc1`, for which the GI50 with NCI-H460 is > 100 µM (inactive); with SK-MEL-2, > 100 µM (inactive); in the assay with HCT-116, 57.3 µM (inactive); in the assay on MDA-MB-435, > 100 µM (inactive); in the assay on HCT-15, more than 100 µM; with SK-MEL-5, > 100 µM (inactive). Further, the GI50 in the assay on OVCAR-4 is > 100 µM (inactive); with IGROV-1 it was > 100 µM (inactive); in the assay on MCF7 it was > 100 µM (inactive); in the assay with MDA-N, 83.2 µM (inactive); in the assay on SNB-19 it was > 100 µM (inactive); in the assay with SR, 36.2 µM (inactive). Moreover, the GI50 with MOLT-4, with A549, with EKVX and in the assay on NCI-H522 was > 100 µM (inactive) each time.
